Test results from patent publication US12065445B2, “CDK2 inhibitors and methods of using the same” (Cedilla Therapeutics, Inc., priority 2021, dated 2024).

The compounds below were run on Kuramochi cells (assay: BrdU Cell Proliferation Assay). Conditions: read-out: BrdU - KURAMOCHI.1: IC50.
Format: cell-based
Outline: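 Signal is 450 nm absorbance from a peroxidase anti-BrdU ELISA after a 1-hour BrdU label, background-subtracted and normalized to DMSO-treated wells. Kuramochi cells (2,000 per well) had been exposed to compound for 4 days. Dosing used a 10-point dose response in 3-fold steps.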

Compound | IC50 [µM]
COC(=O)[C@@H](CO)NC(=O)[C@@H]1CN(C(=O)c2cnn(Cc3ccccc3)c2)CC12CN(C(=O)[C@H]1CC1(C)C)C2 [I-187A] | > 10
COC(=O)[C@@H](CO)NC(=O)[C@H]1CN(C(=O)c2cnn(Cc3ccccc3)c2)CC12CN(C(=O)[C@H]1CC1(C)C)C2 [I-187B] | > 10
C[C@@H](OCC1CCC(F)(F)CC1)[C@H](NC(=O)[C@@H]1CN(C(=O)c2cn[nH]c2)CC12CN(C(=O)C1(C(F)(F)F)CC1)C2)C(=O)N1CCC(F)(F)CC1 [I-188A] | > 10
C[C@@H](OCC1CCC(F)(F)CC1)[C@H](NC(=O)[C@H]1CN(C(=O)c2cn[nH]c2)CC12CN(C(=O)C1(C(F)(F)F)CC1)C2)C(=O)N1CCC(F)(F)CC1 [I-188B] | > 10
C[C@@H](OCC1CCC(F)(F)CC1)[C@H](NC(=O)[C@@H]1CN(C(=O)c2cnn(Cc3ccc(F)cc3)c2)CC12CN(C(=O)C1(C(F)(F)F)CC1)C2)C(=O)N1CCC(F)(F)CC1 [I-190A] | ≤ 0.5
CNC(=O)[C@@H](NC(=O)[C@@H]1CN(C(=O)c2cnn(Cc3ccccc3)c2)CC12CN(C(=O)[C@H]1CC1(C)C)C2)C(C)(C)S(=O)(=O)Cc1ccccc1 [I-199, (S)-6-(1-benzyl-1H-pyrazole-4-carbonyl)-N—((R)-3-(benzylsulfonyl)-3-methyl-1-(methylamino)-1-oxobutan-2-yl)-2-((S)-2,2-dimethylcyclopropane-1-carbonyl)-2,6-diazaspiro[3.4]octane-8-carboxamide] | > 10
C[C@@H](OCC1CCCCC1)[C@H](NC(=O)[C@@H]1CN(C(=O)c2cnn(Cc3ccccc3)c2)CC12CN(C(=O)[C@H]1CC1(C)C)C2)C(N)=O [I-200] | 0.5 to 5
CC1(C)C[C@@H]1C(=O)N1CC2(CN(C(=O)c3cnn(Cc4ccccc4)c3)C[C@@H]2C(=O)N[C@@H]2CC[C@@H]2O)C1 [I-201A] | > 10
CC1(C)C[C@@H]1C(=O)N1CC2(CN(C(=O)c3cnn(Cc4ccccc4)c3)C[C@H]2C(=O)N[C@@H]2CC[C@@H]2O)C1 [I-201B] | > 10
CNC(=O)[C@@H](NC(=O)[C@@H]1CN(C(=O)c2cnn(Cc3ccccc3)c2)CC12CN(C(=O)[C@H]1CC1(C)C)C2)[C@@H](C)OCC1CCC(F)(F)CC1 [I-202] | 0.5 to 5
CNC(=O)[C@@H](NC(=O)[C@@H]1CN(C(=O)c2cnn(Cc3ccccc3)c2)CC12CN(C(=O)[C@H]1CC1(C)C)C2)[C@@H](C)OCC(F)(F)F [I-204] | > 10
CNC(=O)[C@@H](NC(=O)[C@@H]1CN(C(=O)c2cnn(Cc3ccccc3)c2)CC12CN(C(=O)[C@H]1CC1(C)C)C2)[C@@H](C)OCC1(C(F)(F)F)CC1 [I-205A] | > 10
CNC(=O)[C@@H](NC(=O)[C@H]1CN(C(=O)c2cnn(Cc3ccccc3)c2)CC12CN(C(=O)[C@H]1CC1(C)C)C2)[C@@H](C)OCC1(C(F)(F)F)CC1 [I-205B] | > 10
CC1(C)C[C@@H]1C(=O)N1CC2(CN(C(=O)c3cnn(Cc4ccccc4)c3)C[C@H]2C(=O)N[C@H]2CCN(c3ccccc3)C2)C1 [I-206] | > 10
CNC(=O)[C@@H](NC(=O)[C@H]1CN(C(=O)c2sc(Cl)nc2C)CC12CN(C(=O)[C@H]1CC1(C)C)C2)[C@@H](C)OCC1CCCCC1 [I-208B] | > 10
COC(=O)[C@H](CO)NC(=O)[C@@H]1CN(C(=O)c2cnn(Cc3ccccc3)c2)CC12CN(C(=O)[C@H]1CC1(C)C)C2 [I-209A] | > 10
COC(=O)[C@H](CO)NC(=O)[C@H]1CN(C(=O)c2cnn(Cc3ccccc3)c2)CC12CN(C(=O)[C@H]1CC1(C)C)C2 [I-209B] | > 10
CC1(C)C[C@@H]1C(=O)N1CC2(CN(C(=O)c3cnn(Cc4ccccc4)c3)C[C@H]2C(=O)N2CCO[C@@H](Cc3ccccc3)C2)C1 [I-210] | > 10
CC1(C)C[C@@H]1C(=O)N1CC2(CN(C(=O)c3cnn(Cc4ccccc4)c3)C[C@H]2C(=O)N[C@@H]2CCCN(CC3CCCCC3)C2)C1 [I-212] | > 10
CC1(C)C[C@@H]1C(=O)N1CC2(CN(C(=O)c3cnn(Cc4ccccc4)c3)C[C@H]2C(=O)N2CCC(OCc3ccccc3)CC2)C1 [I-214] | > 10
CC1(C)C[C@@H]1C(=O)N1CC2(CN(C(=O)c3cnn(Cc4ccccc4)c3)C[C@H]2C(=O)N[C@@H]2CCCN(C(=O)C3CCCCC3)C2)C1 [I-215] | > 10
C[C@@H](OCC1CCCCC1)[C@H](NC(=O)[C@@H]1CN(C(=O)c2ccn[nH]2)CC12CN(C(=O)[C@H]1CC1(C)C)C2)C(=O)N1CCCCC1 [I-216] | > 10
C[C@@H](OCC1CCCCC1)[C@H](NC(=O)[C@@H]1CN(C(=O)c2ccns2)CC12CN(C(=O)[C@H]1CC1(C)C)C2)C(=O)N1CCCCC1 [I-217] | ≤ 0.5
C[C@@H](OCC1CCCCC1)[C@H](NC(=O)[C@@H]1CN(C(=O)c2cnn(Cc3ccccc3)c2)CC12CN(C(=O)[C@H]1CC1(C)C)C2)C(=O)N1CCC[C@@H](N)C1 [I-218] | 5 to 10
C[C@@H](OCC1CCCCC1)[C@H](NC(=O)[C@@H]1CN(C(=O)c2cnn(Cc3ccccc3)c2)CC12CN(C(=O)[C@H]1CC1(C)C)C2)C(=O)N1CCC(CN)CC1 [I-219] | 0.5 to 5
C[C@@H](OCC1CCCCC1)[C@H](NC(=O)[C@@H]1CN(C(=O)c2cnn(Cc3ccccc3)c2)CC12CN(C(=O)[C@H]1CC1(C)C)C2)C(=O)N1CCC[C@H]1CN [I-220] | > 10
CC1(C)C[C@@H]1C(=O)N1CC2(CN(C(=O)c3cnn(Cc4ccccc4)c3)C[C@H]2C(=O)NCC2CCCCO2)C1 (some centres unmarked) [I-221] | > 10

Compound | IC50 [µM]
CC1(C)C[C@@H]1C(=O)N1CC2(CN(C(=O)c3cnn(Cc4ccccc4)c3)C[C@H]2C(=O)NC2CCNC(=O)C2)C1 (some centres unmarked) [I-223] | > 10
CNC(=O)[C@@H](NC(=O)[C@@H]1CN(C(=O)c2scnc2C2CCCC2)CC12CN(C(=O)[C@H]1CC1(C)C)C2)[C@@H](C)OCC1CCCCC1 [I-224B] | > 10
CNC(=O)[C@H](CSCc1ccccc1)NC(=O)[C@@H]1CN(C(=O)c2cnn(Cc3ccccc3)c2)CC12CN(C(=O)[C@H]1CC1(C)C)C2 [I-225] | > 10
CNC(=O)[C@H](CS(=O)(=O)Cc1ccccc1)NC(=O)[C@@H]1CN(C(=O)c2cnn(Cc3ccccc3)c2)CC12CN(C(=O)[C@H]1CC1(C)C)C2 [I-226] | > 10
CNC(=O)[C@@H](NC(=O)[C@H]1CN(C(=O)c2sc(C(C)C)nc2C)CC12CN(C(=O)[C@H]1CC1(C)C)C2)[C@@H](C)OCC1CCCCC1 [I-227B] | > 10
C[C@@H](OCC1CCC(F)(F)CC1)[C@H](NC(=O)[C@H]1CN(C(=O)c2cn[nH]c2)CC12CN(C(=O)[C@H]1CC1(C)C)C2)C(=O)N1CCC(F)(F)CC1 [I-228B] | > 10
CNC(=O)[C@@H](NC(=O)[C@H]1CN(C(=O)c2cnc(C(C)(C)C)s2)CC12CN(C(=O)[C@H]1CC1(C)C)C2)[C@@H](C)OCC1CCCCC1 [I-229B] | > 10
CC1(C)C[C@@H]1C(=O)N1CC2(CN(C(=O)c3cnn(Cc4ccccc4)c3)C[C@H]2C(=O)NCc2nc3ccccc3o2)C1 [I-230] | > 10
CNC(=O)[C@@H](NC(=O)[C@H]1CN(C(=O)c2scnc2C(C)(C)C)CC12CN(C(=O)[C@H]1CC1(C)C)C2)[C@@H](C)OCC1CCCCC1 [I-231B] | > 10
CNC(=O)[C@@H](NC(=O)[C@H]1CN(C(=O)c2sc(Cl)nc2Cl)CC12CN(C(=O)[C@H]1CC1(C)C)C2)[C@@H](C)OCC1CCCCC1 [I-232B] | > 10
CC(C)O[C@H]1C[C@H](NC(=O)[C@@H]2CN(C(=O)c3cnn(Cc4ccccc4)c3)CC23CN(C(=O)[C@H]2CC2(C)C)C3)C1 [I-233] | > 10
CC1(C)C[C@@H]1C(=O)N1CC2(CN(C(=O)c3cnn(Cc4ccccc4)c3)C[C@H]2C(=O)N2CC[C@@H](OCC3CCCCC3)C2)C1 [I-235] | > 10
CC1(C)C[C@@H]1C(=O)N1CC2(CN(C(=O)c3cnn(Cc4ccccc4)c3)C[C@H]2C(=O)N2CCC[C@H](OCC3CCCCC3)C2)C1 [I-236] | > 10
CC1(C)C[C@@H]1C(=O)N1CC2(CN(C(=O)c3cnn(Cc4ccccc4)c3)C[C@H]2C(=O)N2CCN(CC3CCCCC3)CC2)C1 [I-237] | > 10
C[C@@H](OCC1CCCCC1)[C@H](NC(=O)[C@@H]1CN(C(=O)c2cnn(Cc3ccccc3)c2)CC12CN(C(=O)[C@H]1CC1(C)C)C2)C(=O)N1CCC[C@@H]1CN [I-238] | > 10
C[C@@H](OCC1CCCCC1)[C@H](NC(=O)[C@@H]1CN(C(=O)c2cnn(Cc3ccccc3)c2)CC12CN(C(=O)[C@H]1CC1(C)C)C2)C(=O)N1CC(CN)C1 [I-239] | > 10
C[C@@H](OCC1CCCCC1)[C@H](NC(=O)[C@@H]1CN(C(=O)c2cnn(Cc3ccccc3)c2)CC12CN(C(=O)[C@H]1CC1(C)C)C2)C(=O)N1CC2(CNC2)C1 [I-240] | > 10
Cc1n[nH]c(C(=O)N2C[C@@H](C(=O)N[C@H](C(=O)N3CCCCC3)[C@@H](C)OCC3CCCCC3)C3(C2)CN(C(=O)[C@H]2CC2(C)C)C3)n1 [I-241] | > 10
C[C@@H](OCC1CCCCC1)[C@H](NC(=O)C1CN(C(=O)C2CCC(=O)N(C)C2)CC12CN(C(=O)[C@H]1CC1(C)C)C2)C(=O)N1CCCCC1 (some centres unmarked) [I-242] | > 10
CC1(C)C[C@@H]1C(=O)N1CC2(CN(C(=O)c3cnn(Cc4ccccc4)c3)C[C@H]2C(=O)N[C@H]2CCN(C3CC3)C2=O)C1 [I-243] | > 10
CNC(=O)[C@@H](NC(=O)[C@@H]1CN(C(=O)c2cnn(Cc3ccccc3)c2)CC12CN(C(=O)[C@H]1CC1(C)C)C2)[C@@H](C)OCc1ccncc1 [I-244] | > 10
CC1(C)C[C@@H]1C(=O)N1CC2(CN(C(=O)c3cnn(Cc4ccccc4)c3)CC2C(=O)NC2CNCCOC2)C1 (some centres unmarked) [I-245] | > 10
CNC(=O)[C@@H](NC(=O)[C@@H]1CN(C(=O)c2cnn(Cc3ccccc3)c2)CC12CN(C(=O)[C@H]1CC1(C)C)C2)[C@@H](C)OCc1cccnc1 [I-247] | > 10
CO[C@@H]1CC[C@H](NC(=O)[C@@H]2CN(C(=O)c3cnn(Cc4ccccc4)c3)CC23CN(C(=O)[C@H]2CC2(C)C)C3)C1 [I-248] | > 10
COCC1(NC(=O)[C@H]2CN(C(=O)c3cnn(Cc4ccccc4)c3)CC23CN(C(=O)[C@H]2CC2(C)C)C3)CC1 [I-250] | > 10
CNC(=O)[C@@H](NC(=O)[C@@H]1CN(C(=O)c2cnn(Cc3ccccc3)c2)CC12CN(C(=O)[C@H]1CC1(C)C)C2)[C@@H](C)OCc1ccccc1O [I-251] | > 10
